One assay has as its system AMPK. The experiment in a line: Immunoblot of phospho-Thr172 AMPK and phospho-Ser79 ACC in MEFs. Type of assay: cell-based, mouse. As to conditions: 2 mM AICAR for 2 h. As for the experimental part: FIG. 3a: Littermate MEFs of the indicated LKB1 genotypes were left untreated (NT) or treated with 0.1 mM H2O2 for 20 mins or 2 mM AICAR for 2 h. Total cell extracts were immunoblotted for phospho-Thr 172 AMPK or phospho Ser79 ACC, as well as for total AMPK and LKB1. FIG. 3b: An immortalized LKB1-deficient MEF cell line was reconstituted with human (hu) or mouse (ms) WT or KD LKB1 expressing retroviruses. The asterisk (*) represents a background band that serves as a loading control.
(§1) FIG. 6A: Subconfluent cycling littermate-matched primary MEFs of the indicated genotype were left untreated (NT) or were treated with 2 mM AICAR for 2 h. Total cell extracts were immunoblotted for phospho-Thr172 AMPK (P-AMPK), phospho Ser79 ACC (P-ACC), phospho-Thr389 S6K1 (P-S6K1), phospho-Ser9 GSK-3b (P-GSK-3), and phospho-Ser235/236 S6 ribosomal protein (P-S6). FIG. 6B: An immortalized LKB1−/− MEF cell line was reconstituted with vector (v), wild-type (wt) or kinase-dead (kd) human LKB1-expressing retroviruses. Cells were treated as in FIG. 6A. eIF4E was used as a loading control. *represents a cross-reactive band with the anti-LKB1 antisera as characterized previously (Shaw et al. (2004) Proc. Natl. Acad. Sci. USA 101, 3329-3335). FIG. 6C: Endogenous 5′ cap complexes were isolated from LKB1 primary MEFs as in A. 10% of the total cell lysate is shown in the left panels; cap complexes purified on 7-methyl sepharose are shown in right panels. Each were immunoblotted with total 4E-BP1 and eIF4E antibodies. eIF4E is shown as a loading control. FIG. 6D: Hela cells (which are LKB1-deficient) were transiently transfected with vector, FLAG-tagged wild-type, or kinase-dead LKB1 along with an HA-tagged S6K1 or an HA-tagged 4E-BP1 construct, then treated where indicated with 2 mM AICAR for 2 h. S6K1-immunoprecipitates were immunoblotted for activating phosphorylation of S6K1 as before, as well with anti-HA to control for levels. Lysates were immunoblotted with anti-FLAG to detect levels of LKB1 and with anti-HA to detect phosphorylation induced changes in 4E-BP1 mobility on SDS-PAGE.
Kinase Assays and Cellular Analysis: AMPK kinase activity was measured using the SAMS peptide as previously described (7). LKB1 phosphorylation of AMPK was carried out in kinase buffer (50 mM Tris pH 7.5, 10 mM MgCl2, 1 mM DTT, 100 μM ATP) for 20 mins at 30° C. For immunopreciptations of active LKB1 kinase, Flag-tagged LKB1 was co-transfected with an equimolar amount of STRAD expression plasmid into HT1080 cells and immunoprecipitated using M2-agarose (Sigma) 24 h post-transfection in NP40 lysis buffer26. Before kinase assays, immunoprecipitated LKB1 was washed 3× in lysis buffer then 2× in kinase buffer. Soluble MBP-AMPK was added at 5 μg per kinase reaction. […]

Another assay deals with quiescent cells. As to conditions: cited from earlier work.
In the next assay the test system is mTOR signaling. In words: mTOR signaling (S6K1, 4E-BP1 phosphorylation) in transfected HeLa cells. As to conditions: HeLa cells with wild-type LKB1, 2 mM AICAR for 2 h. Type of assay: cell-based, human. As for the experimental part:
as §1, with “S6K1-immunoprecipitates were immunoblotted for activating phosphorylation of S6K1 as before, as well with anti-HA to control for levels. Lysates were immunoblotted with anti-FLAG to detect levels of LKB1 and with anti-HA to detect phosphorylation induced changes in 4E-BP1 mobility on SDS-PAGE.” left out

In the case of `NC(=O)c1ncn([C@@H]2O[C@H](CO)[C@@H](O)[C@H]2O)c1N` [AICAR, 5-aminoimidazole-4-carboxamide 1-β-D-ribofuranoside], in the assay on AMPK (LKB1 null MEFs), the “Thr172 phosphorylation of AMPK” value is recorded as “complete loss of Thr172 phosphorylation” and the “phosphorylation of ACC (Ser79)” value is recorded as “nearly abolished”. Also, in the assay with AMPK (Lkb1-deficient fibroblasts), the AMPK activation result is given as “severely attenuated”. For the same compound, in the assay on AMPK (wild-type MEFs), the AMPK activation entry is reported as “activated”. For the same compound, in the assay with quiescent cells, the glucocorticoid induced apoptosis result is listed as “protects them from glucocorticoid induced apoptosis”. The “S6K1 and 4E-BP1 phosphorylation” value with mTOR signaling is recorded as “inhibition”.

These data come from patent US20120122991A1, “METHOD FOR TREATING CANCER BY INCREASING AMP-ACTIVATED KINASE ACTIVITY” (Dana-Farber Cancer Institute, Inc., priority 2003, published 2012).
